According to patent publication US20180214400A1, “THE USE OF KAURANES COMPOUNDS IN THE MANUFACTURE OF MEDICAMENT FOR TREATMENT OF CADIAC HYPERTROPY AND PULMONARY HYPERTENSION” (KEY-PHARMA BIOMEDICAL INC., priority 2015, published 2018):

Key:
TAC rats [1] = assay: Heart rate variability spectral analysis in TAC rats; assay type: in vivo; conditions: TAC for 9 weeks
Protocol: Three or nine weeks after TAC operation, rats were anesthetized with pentobarbital sodium (i.p. 40 mg/kg). The electrocardiogram (ECG) was measured using the II Einthoven lead. Three stainless steel 22G needle electrodes were localized in the insertion of the right (G1) and left (GND) front legs, and in the left (G2) rear leg. Accordingly, 10 min of ECG recordings were digitally acquired at 2 kHz prior to any maneuver. Heart rate variability-Spectral Analysis was performed using fast Fourier transformation. Oscillatory components were separated into very low frequency (VLF; <0.04 Hz), low frequency (LF; 0.04-0.6 Hz), or high frequency (HF; 0.6-2.5 Hz) bands. HRV components were expressed in normalized units (n.u.) as a percentage of total power minus the VLF component. Efferent vagal parasympathetic activity is a major contributor to the HF component and both sympathetic and vagal influences contribute to the LF component; thus the ratio of LF to HF is commonly utilized as a measure of sympathovagal balance. Parameters of the heart rate variability (HRV) are indicators for cardiac autonomic balance. […] This invention disclosed a novel used of compound A for restore cardiac autonomic balance by suppress elevated sympathetic activity, which sildenafil had no such effect.

[2] = tested on: pulmonary hypertension rats; assay: Pressure overload (TAC)-induced pulmonary hypertension, lung histology; assay type: in vivo, wistar rats; parameters: Mean vascular wall thickness: unit not given here; conditions: for Mean vascular wall thickness: 9 weeks TAC
Protocol: Pressure overloaded-induced pulmonary hypertension was induced by transverse aortic constriction in male wistar rats (200±20 g body weight). Sham operated rats served as controls. […] After 9 weeks, animals were sacrificed and lungs were fixed, paraffin-embedded, sectioned, and stained with hematoxylin and eosin. Blinded stereological Analysis of mean wall thickness and vascular muscularization of lung arterial vessels was performed. Collagen I was verified by immune-fluorescent staining and visualized in confocal.

TAC rats [3] = assay: TAC-induced cardiac hypertrophy and cardiomyocyte dilation in rats; assay type: in vivo, Wistar rats; conditions: for cardiac and myocyte hypertrophy: 3-week TAC groups; for increment of cardiomyocyte cross-sectional area: 3-week TAC; for HW / HW/BW: 3 wk TAC
Protocol: TAC between the innominate artery and the left carotid artery was conducted to induce pressure overload for 3 weeks (3-week TAC) or 9 weeks (9-week TAC). Sham control animals underwent the same operation, but without aortic constriction. All surgical procedures were performed with animals anesthetized with 3% pentobarbital sodium injected intraperitoneally (i.p. 40 mg/kg). During the surgery period, rats were intubated and ventilated with a rodent ventilator (Harvard Apparatus, Holliston, Mass., USA).
Both 3-week and 9-week TAC-exposed rats were randomly divided into five groups (n=8-10 rats) including a TAC vehicle control, COMPOUND A, low (TAC+COMPOUND A (L), 1 mg/kg/d), middle (TAC+COMPOUND A (M), 2 mg/kg/d), high (TAC+COMPOUND A (H), 8 mg/kg/d) dose group respectively, and sildenafil (TAC+Sil, 70 mg/kg/d) as a positive control group. Sham controls were all treated with vehicle. Acute and chronic mortality from the TAC procedure was <5%. The treat group was intra-gastric administrated with sodium salt of compound A which was solved in a mixture of saline and organic solvent of the same volume (1:1, 0.5 ml) and sildenafil which was solved in distilled water. All drugs and vehicle treatment were given twice a day after surgery for three days as designed. The animals were examined at 3 weeks and 9 weeks after surgery accordingly. At the end of the observation periods and after hemodynamic measurement in vivo, all animals were sacrificed and hearts were explanted for further Analyses.
Tissue sections of rat hearts were fixed in 10% neutral-buffered formalin, embedded in paraffin, cut into […] serial sections, and then stained with haematoxylin and eosin (H&E), picrosirius red or phalloidin. Nikon system and Zeiss confocal microscope were used to capture digital images. Stained with H&E was to evaluate cell size, stained with picrosirius red (sigma CA) was to test fibrosis using standard procedure and the amount of F-actin was stained with phalloidin. We determined cross sectional cell area and interstitial collagen fraction using computer-assisted image analysis (Image-Pro Plus software), with the observer blinded as to tissue source. At least four or five different hearts were quantified for analysis.
Adult Wistar rats were subjected to TAC for 3 weeks and treated with vehicle, COMPOUND A or sildenafil, respectively. […] The cardiac and myocyte hypertrophy were ameliorated by compound A or sildenafil in the 3-week TAC groups (Table 1).

TAC-exposed rats = assay: ECG alterations induced by TAC; assay type: in vivo; conditions: for QT dispersion and QTc dispersion increase induced by TAC: TAC after 9 weeks; for QRS duration and R amplitude: TAC at 9 weeks
[4] = comp. A (L) 1 mg/kg/d intra-gastric

C[C@@]12CC[C@@H]3[C@@](CC[C@H]4[C@@]3(C)CCC[C@@]4(C)C(=O)O)(CC1=O)C2 [Compound A, (4α,8β,13β)-13-methyl-16-oxo-17-norkauran-18-oic acid]
LF/HF ratio (TAC rats [1]): reversed to normal
Fully muscularization ([2]; 1 mg/kg + TAC): 10.20 ± 9.787 %
Non-muscularization ([2]; 1 mg/kg + TAC): 66.78 ± 5.876 %
Partially muscularization ([2]; 1 mg/kg + TAC): 23.00 ± 3.938%
Fully muscularization ([2]; 4 mg/kg + TAC): 1.851 ± 3.207^#& %
Non-muscularization ([2]; 4 mg/kg + TAC): 81.10 ± 16.60 %
Partially muscularization ([2]; 4 mg/kg + TAC): 17.04 ± 18.98%
number of non-muscularization vessels ([2]; lung, TAC rats): increased
production of collagen I ([2]; lung, TAC rats): reduced
vascular remodeling in small and medium arteries ([2]; lung, TAC rats): prevented
fluorescent intensity of collagen I ([2]; lung, 1 mg/kg + TAC): 10.75
Mean vascular wall thickness ([2]; pulmonary arterioles inner diameter <100 um, 1 mg/kg): 22.96 ± 7.83
Mean vascular wall thickness ([2]; pulmonary arterioles inner diameter <100 um, 4 mg/kg): 17.60 ± 6.28^##&&
Mean vascular wall thickness ([2]; pulmonary arterioles inner diameter >100 um, 1 mg/kg): 16.60 ± 6.00
Mean vascular wall thickness ([2]; pulmonary arterioles inner diameter >100 um, 4 mg/kg): 10.67 ± 5.01
cardiac and myocyte hypertrophy (TAC rats [3]): ameliorated
increment of cardiomyocyte cross-sectional area (TAC rats [3]; 1 mg/kg): 15.1%
increment of cardiomyocyte cross-sectional area (TAC rats [3]; 2 mg/kg): 4.1%
increase of cardiomyocyte cross-sectional area comparing to Sham rats (TAC rats [3]; 3 weeks TAC rats, dose not stated (TAC alone 76%)): 10%
HW (TAC rats [3]; [4]): 0.72 ± 0.03 g
HW/BW (TAC rats [3]; [4]): 2.862 ± 0.099 mg/g
QT dispersion and QTc dispersion increase induced by TAC (TAC-exposed rats): reversed such effects
QRS duration and R amplitude (TAC-exposed rats): trended normal

CCCc1nn(C)c2c(=O)[nH]c(-c3cc(S(=O)(=O)N4CCN(C)CC4)ccc3OCC)nc12 [sildenafil, reference compound]
LF/HF ratio (TAC rats [1]): did not reduce
Fully muscularization ([2]; 70 mg/kg + TAC): 23.80 ± 8.247 %
Non-muscularization ([2]; 70 mg/kg + TAC): 57.57 ± 7.182 %
Partially muscularization ([2]; 70 mg/kg + TAC): 18.61 ± 15.09%
fluorescent intensity of collagen I ([2]; lung, 70 mg/kg + TAC): 7.591
Mean vascular wall thickness ([2]; pulmonary arterioles inner diameter <100 um, sildenafil): 24.10 ± 7.48
Mean vascular wall thickness ([2]; pulmonary arterioles inner diameter >100 um, sildenafil): 14.88 ± 6.83
cardiac and myocyte hypertrophy (TAC rats [3]): ameliorated
increment of cardiomyocyte cross-sectional area (TAC rats [3]; 70 mg/kg): 16.3%
HW (TAC rats [3]; sildenafil 70 mg/kg/d): 0.76 ± 0.04 g
HW/BW (TAC rats [3]; sildenafil 70 mg/kg/d): 2.86 ± 0.117 mg/g
QT dispersion and QTc dispersion increase induced by TAC (TAC-exposed rats): did not show similar protective effect
QRS duration and R amplitude (TAC-exposed rats): trended normal
